Data reported in US20220088016A1, “CANCER TREATMENT USING MULTI-TARGETED KINASE INHIBITOR IN COMBINATION OF PROTEIN KINASE BIOMARKERS” (ZHEJIANG CROWNMAB BIOTECH CO. LTD., priority 2019, published 2022).

Legend:
Assay in all cases: Kinase profiling
Assay type in all cases: binding
Conditions in all cases: read-out: % Ctrl @ 1000 nM
TLK1 = TLK1 (Homo sapiens, UniProt Q9UKI8)
RIPK2 = RIPK2 (Homo sapiens, UniProt O43353)
PRKCQ = PRKCQ (Homo sapiens, UniProt Q04759)
FLT3 = FLT3 (Homo sapiens, UniProt P36888)
LRRK2 = LRRK2 (Homo sapiens, UniProt Q5S007)
FGFR3 = FGFR3 (Homo sapiens, UniProt P22607)
Sequence of FGFR3 (P22607 23-806): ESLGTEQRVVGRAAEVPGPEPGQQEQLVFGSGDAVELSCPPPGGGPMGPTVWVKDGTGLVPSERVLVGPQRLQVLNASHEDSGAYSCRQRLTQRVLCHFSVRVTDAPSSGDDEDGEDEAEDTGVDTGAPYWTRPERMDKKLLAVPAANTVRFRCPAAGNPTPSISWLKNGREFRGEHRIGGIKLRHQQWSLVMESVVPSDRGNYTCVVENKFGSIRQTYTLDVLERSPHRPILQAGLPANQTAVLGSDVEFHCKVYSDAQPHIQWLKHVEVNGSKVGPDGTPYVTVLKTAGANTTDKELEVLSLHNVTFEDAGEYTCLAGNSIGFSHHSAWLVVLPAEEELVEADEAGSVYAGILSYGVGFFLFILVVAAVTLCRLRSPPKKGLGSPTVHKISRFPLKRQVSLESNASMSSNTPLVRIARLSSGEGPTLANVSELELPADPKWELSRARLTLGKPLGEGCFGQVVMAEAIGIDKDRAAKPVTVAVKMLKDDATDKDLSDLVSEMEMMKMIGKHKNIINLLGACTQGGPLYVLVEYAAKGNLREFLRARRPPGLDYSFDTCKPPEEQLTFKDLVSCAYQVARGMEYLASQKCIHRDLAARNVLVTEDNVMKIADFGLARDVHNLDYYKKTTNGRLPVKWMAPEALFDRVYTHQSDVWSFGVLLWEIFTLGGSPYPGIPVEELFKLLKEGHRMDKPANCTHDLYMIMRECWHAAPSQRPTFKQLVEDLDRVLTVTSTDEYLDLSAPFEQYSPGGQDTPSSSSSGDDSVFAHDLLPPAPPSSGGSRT

CDK4 = CDK4 (Homo sapiens, UniProt P11802)
Sequence of CDK4 (P11802 whole entry): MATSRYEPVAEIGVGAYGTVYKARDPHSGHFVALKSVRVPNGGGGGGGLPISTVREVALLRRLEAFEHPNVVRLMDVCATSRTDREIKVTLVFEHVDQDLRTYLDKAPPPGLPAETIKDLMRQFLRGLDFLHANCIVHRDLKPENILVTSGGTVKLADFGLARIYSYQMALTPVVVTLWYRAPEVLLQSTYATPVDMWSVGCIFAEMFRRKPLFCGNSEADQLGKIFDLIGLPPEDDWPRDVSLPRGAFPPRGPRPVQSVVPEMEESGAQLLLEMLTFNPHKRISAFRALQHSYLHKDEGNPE

ACVR1 = ACVR1 (Homo sapiens, UniProt Q04771)
EPHA3 = EPHA3 (Homo sapiens, UniProt P29320)
TIE1 = TIE1 (Homo sapiens, UniProt P35590)
MST4 = biological target: T1, MST4 (Homo sapiens, UniProt Q9P289)
T1 construct: T7 phage fusion (said for most assays); made in house

DDR1 = DDR1 (Homo sapiens, UniProt Q08345)
STK16 = STK16 (Homo sapiens, UniProt O75716)
Sequence of STK16 (O75716 whole entry): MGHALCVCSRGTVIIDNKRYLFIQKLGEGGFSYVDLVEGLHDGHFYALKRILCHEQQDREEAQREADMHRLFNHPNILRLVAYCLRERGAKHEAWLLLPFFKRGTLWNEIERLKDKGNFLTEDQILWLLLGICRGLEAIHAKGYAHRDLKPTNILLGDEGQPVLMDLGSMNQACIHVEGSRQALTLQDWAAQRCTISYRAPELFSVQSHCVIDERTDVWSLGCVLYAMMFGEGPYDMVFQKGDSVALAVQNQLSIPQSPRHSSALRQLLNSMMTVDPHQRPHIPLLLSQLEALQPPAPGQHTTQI

[1] = biological target: EGFR (L747-T751del, Sins) (Homo sapiens, UniProt P00533, DEL747-750/T751S)
Sequence of EGFR (L747-T751del, Sins) (P00533 with tags, fused parts or gaps DEL747-750/T751S limits assumed): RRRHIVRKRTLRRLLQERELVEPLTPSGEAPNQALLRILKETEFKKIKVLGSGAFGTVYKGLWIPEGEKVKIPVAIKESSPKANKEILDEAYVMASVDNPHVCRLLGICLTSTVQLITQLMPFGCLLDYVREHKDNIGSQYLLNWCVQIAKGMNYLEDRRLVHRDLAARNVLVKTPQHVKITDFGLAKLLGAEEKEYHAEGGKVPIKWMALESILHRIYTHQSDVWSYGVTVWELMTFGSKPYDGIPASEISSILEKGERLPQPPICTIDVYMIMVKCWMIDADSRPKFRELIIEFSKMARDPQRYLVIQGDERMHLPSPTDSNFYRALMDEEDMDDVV

GRK3 = GRK3 (Homo sapiens, UniProt P35626)
CDK5 = CDK5 (Homo sapiens, UniProt Q00535)
LIMK1 = LIMK1 (Homo sapiens, UniProt P53667)
TRKB = TRKB (Homo sapiens, UniProt Q16620)
MAST1 = biological target: T2, MAST1 (Homo sapiens, UniProt Q9Y2H9)
T2 construct: T7 phage fusion (stated for most kinases of the panel only); made in house; host or cells: T7 phage in E. coli (BL21-derived) or HEK-293 cells
T2 sequence (Q9Y2H9 whole entry, the tested form may be a part): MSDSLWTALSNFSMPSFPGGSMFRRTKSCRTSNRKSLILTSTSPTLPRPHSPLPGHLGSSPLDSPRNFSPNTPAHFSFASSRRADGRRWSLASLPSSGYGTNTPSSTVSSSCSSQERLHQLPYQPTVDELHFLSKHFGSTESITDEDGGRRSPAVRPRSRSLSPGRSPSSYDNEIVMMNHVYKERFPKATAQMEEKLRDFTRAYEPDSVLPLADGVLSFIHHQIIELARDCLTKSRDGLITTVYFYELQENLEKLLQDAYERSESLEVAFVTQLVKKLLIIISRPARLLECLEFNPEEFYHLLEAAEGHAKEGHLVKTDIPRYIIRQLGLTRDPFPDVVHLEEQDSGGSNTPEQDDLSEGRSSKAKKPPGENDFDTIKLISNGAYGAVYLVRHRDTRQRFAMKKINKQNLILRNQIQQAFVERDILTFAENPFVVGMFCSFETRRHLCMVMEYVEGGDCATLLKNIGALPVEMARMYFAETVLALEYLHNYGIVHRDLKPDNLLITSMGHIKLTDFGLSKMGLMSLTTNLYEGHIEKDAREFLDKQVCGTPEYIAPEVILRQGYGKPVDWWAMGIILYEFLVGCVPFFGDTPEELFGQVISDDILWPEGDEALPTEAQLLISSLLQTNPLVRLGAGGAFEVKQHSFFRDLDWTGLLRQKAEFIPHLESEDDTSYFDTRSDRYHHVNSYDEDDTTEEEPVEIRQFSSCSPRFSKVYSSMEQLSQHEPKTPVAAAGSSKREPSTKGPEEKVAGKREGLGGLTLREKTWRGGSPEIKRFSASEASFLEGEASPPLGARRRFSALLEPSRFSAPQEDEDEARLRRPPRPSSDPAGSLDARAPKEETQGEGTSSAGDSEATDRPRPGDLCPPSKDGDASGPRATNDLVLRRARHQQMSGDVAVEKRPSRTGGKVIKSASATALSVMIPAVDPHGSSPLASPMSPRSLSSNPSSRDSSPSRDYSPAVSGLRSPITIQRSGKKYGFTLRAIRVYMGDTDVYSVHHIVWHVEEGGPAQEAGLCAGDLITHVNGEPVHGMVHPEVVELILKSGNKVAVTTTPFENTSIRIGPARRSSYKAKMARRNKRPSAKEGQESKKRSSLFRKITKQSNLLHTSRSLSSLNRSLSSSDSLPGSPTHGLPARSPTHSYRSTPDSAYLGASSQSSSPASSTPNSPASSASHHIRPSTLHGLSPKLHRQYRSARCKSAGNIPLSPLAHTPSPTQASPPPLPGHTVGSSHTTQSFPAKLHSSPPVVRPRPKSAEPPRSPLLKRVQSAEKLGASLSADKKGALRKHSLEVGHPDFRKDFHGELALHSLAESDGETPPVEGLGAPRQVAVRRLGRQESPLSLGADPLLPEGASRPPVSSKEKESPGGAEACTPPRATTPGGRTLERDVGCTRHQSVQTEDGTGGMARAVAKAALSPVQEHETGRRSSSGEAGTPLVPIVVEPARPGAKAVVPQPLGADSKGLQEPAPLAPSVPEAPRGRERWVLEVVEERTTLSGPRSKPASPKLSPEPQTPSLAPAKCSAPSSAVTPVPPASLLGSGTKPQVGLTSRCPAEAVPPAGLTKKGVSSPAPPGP

ZAK = ZAK (Homo sapiens, UniProt Q9NYL2)
TNK1 = TNK1 (Homo sapiens, UniProt Q13470)
ROCK2 = ROCK2 (Homo sapiens, UniProt O75116)
SLK = SLK (Homo sapiens, UniProt Q9H2G2)
p38-gamma = p38-gamma (Homo sapiens, UniProt P53778)
FGFR3 (G697C) = FGFR3 (G697C) (Homo sapiens, UniProt P22607, G697C)
Sequence of FGFR3 (G697C) (P22607 23-806 G697C): as the sequence (P22607 23-806) above, with G675C counted along it

FGFR2 = FGFR2 (Homo sapiens, UniProt P21802)
PLK1 = PLK1 (Homo sapiens, UniProt P53350)
CSNK1A1 = CSNK1A1 (Homo sapiens, UniProt P48729)
AAK1 = AAK1 (Homo sapiens, UniProt Q2M2I8)
DAPK2 = DAPK2 (Homo sapiens, UniProt Q9UIK4)
Sequence of DAPK2 (Q9UIK4 whole entry): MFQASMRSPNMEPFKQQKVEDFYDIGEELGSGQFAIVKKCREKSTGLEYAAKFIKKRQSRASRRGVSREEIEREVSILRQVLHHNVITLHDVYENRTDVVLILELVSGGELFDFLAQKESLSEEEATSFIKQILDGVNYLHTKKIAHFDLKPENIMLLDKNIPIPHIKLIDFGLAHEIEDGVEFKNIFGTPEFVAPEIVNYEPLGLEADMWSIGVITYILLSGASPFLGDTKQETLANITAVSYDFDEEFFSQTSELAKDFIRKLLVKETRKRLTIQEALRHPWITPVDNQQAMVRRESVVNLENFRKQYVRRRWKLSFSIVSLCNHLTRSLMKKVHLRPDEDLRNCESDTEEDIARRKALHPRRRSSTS

EPHA6 = EPHA6 (Homo sapiens, UniProt Q9UF33)
CSNK2A1 = CSNK2A1 (Homo sapiens, UniProt P68400)
PIP5K1A = PIP5K1A (Homo sapiens, UniProt Q99755)
FGR = FGR (Homo sapiens, UniProt P09769)
CSNK1G1 = CSNK1G1 (Homo sapiens, UniProt Q9HCP0)
LKB1 = LKB1 (Homo sapiens, UniProt Q15831)
BMX = BMX (Homo sapiens, UniProt P51813)
DCAMKL2 = DCAMKL2 (Homo sapiens, UniProt Q8N568)
PRKG1 = PRKG1 (Homo sapiens, UniProt Q13976)
Sequence of PRKG1 (Q13976 whole entry): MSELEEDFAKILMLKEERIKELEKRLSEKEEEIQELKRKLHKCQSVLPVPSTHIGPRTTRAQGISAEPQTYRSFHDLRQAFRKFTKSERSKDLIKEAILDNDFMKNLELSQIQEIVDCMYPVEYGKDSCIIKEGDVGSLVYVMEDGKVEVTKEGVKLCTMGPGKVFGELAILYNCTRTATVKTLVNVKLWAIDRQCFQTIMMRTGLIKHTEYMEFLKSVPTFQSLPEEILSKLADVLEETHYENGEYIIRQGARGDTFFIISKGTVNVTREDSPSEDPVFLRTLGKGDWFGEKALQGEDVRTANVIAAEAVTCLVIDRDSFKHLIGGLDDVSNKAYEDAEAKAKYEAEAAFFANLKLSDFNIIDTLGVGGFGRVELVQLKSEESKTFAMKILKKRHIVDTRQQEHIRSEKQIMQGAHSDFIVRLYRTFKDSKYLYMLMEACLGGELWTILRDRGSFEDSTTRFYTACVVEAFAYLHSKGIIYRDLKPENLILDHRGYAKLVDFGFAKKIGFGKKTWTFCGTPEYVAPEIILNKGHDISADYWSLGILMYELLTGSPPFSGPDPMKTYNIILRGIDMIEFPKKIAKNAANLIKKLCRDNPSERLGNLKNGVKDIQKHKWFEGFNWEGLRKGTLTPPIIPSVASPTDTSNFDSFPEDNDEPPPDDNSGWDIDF

CDK7 = CDK7 (Homo sapiens, UniProt P50613)
Sequence of CDK7 (P50613 whole entry): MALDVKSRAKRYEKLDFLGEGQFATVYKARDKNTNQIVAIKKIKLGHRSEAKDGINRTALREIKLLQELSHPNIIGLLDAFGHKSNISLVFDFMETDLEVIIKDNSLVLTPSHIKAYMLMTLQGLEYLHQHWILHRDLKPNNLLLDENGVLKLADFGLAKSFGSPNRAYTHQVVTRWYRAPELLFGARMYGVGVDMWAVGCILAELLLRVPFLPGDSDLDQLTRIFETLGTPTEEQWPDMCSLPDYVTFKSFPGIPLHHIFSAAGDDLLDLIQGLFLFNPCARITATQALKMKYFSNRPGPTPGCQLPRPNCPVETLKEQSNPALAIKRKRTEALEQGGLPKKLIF

Cc1cc(Oc2cc(NC(=O)C3CC3)ncn2)ccc1NC(=O)Nc1ccc(Cl)c(C(F)(F)F)c1 [CBT-102]
remaining activity at 1 µM (TLK1): 100% | remaining activity at 1 µM (RIPK2): 28% | remaining activity at 1 µM (PRKCQ): 95% | remaining activity at 1 µM (FLT3): 2.3% | remaining activity at 1 µM (LRRK2): 73% | remaining activity at 1 µM (FGFR3): 87% | remaining activity at 1 µM (CDK4): 100% | remaining activity at 1 µM (ACVR1): 95% | remaining activity at 1 µM (EPHA3): 33% | remaining activity at 1 µM (TIE1): 20% | remaining activity at 1 µM (MST4): 100% | remaining activity at 1 µM (DDR1): 0.3% | remaining activity at 1 µM (STK16): 100% | remaining activity at 1 µM [1]: 88% | remaining activity at 1 µM (GRK3): 97% | remaining activity at 1 µM (CDK5): 92% | remaining activity at 1 µM (LIMK1): 74% | remaining activity at 1 µM (TRKB): 71% | remaining activity at 1 µM (MAST1): 86% | remaining activity at 1 µM (ZAK): 5.5% | remaining activity at 1 µM (TNK1): 52% | remaining activity at 1 µM (ROCK2): 100% | remaining activity at 1 µM (SLK): 1.4% | remaining activity at 1 µM (p38-gamma): 28% | remaining activity at 1 µM (FGFR3 (G697C)): 100% | remaining activity at 1 µM (FGFR2): 62% | remaining activity at 1 µM (PLK1): 95% | remaining activity at 1 µM (CSNK1A1): 99% | remaining activity at 1 µM (AAK1): 96% | remaining activity at 1 µM (DAPK2): 95% | remaining activity at 1 µM (EPHA6): 2.7% | remaining activity at 1 µM (CSNK2A1): 100% | remaining activity at 1 µM (PIP5K1A): 100% | remaining activity at 1 µM (FGR): 41% | remaining activity at 1 µM (CSNK1G1): 100% | remaining activity at 1 µM (LKB1): 100% | remaining activity at 1 µM (BMX): 90% | remaining activity at 1 µM (DCAMKL2): 95% | remaining activity at 1 µM (PRKG1): 100% | remaining activity at 1 µM (CDK7): 25%
